Data on five compounds can be found in ChEMBL document CHEMBL1201862, “PubChem BioAssay data set” (2004).

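Step 1: Grow cells in 96-well plates. Step 2: Expose to compound for 48 hours at 5 concentrations. Step 3: Interpolate endpoints linearly; if unreached, use highest concentration. Abbreviation: GI50, concentration required for 50% inhibition of growth.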 Active and inactive are the calls of the source. No stated cut-off is given here; in the data, active = GI50 up to about 1.1 µM and inactive = higher. Where a SMILES comes first, the peptide text is derived from it. The star is where a group is joined. X33 = O=C(c1ccc(-c2ccc(Cl)cc2Cl)o1)* Where only a bound is given, the exact number is not on record here.

Among the test systems are OVCAR-5; UO-31; NCI-H460; DU-145; OVCAR-4; CAKI-1; M14; SW-620; SK-MEL-5; CCRF-CEM; SR; BT-549; NCI-H226; HCT-15; SNB-19; SN12C; A498; HCC 2998; UACC-257; IGROV-1.
Assay in all cases: NCI anticancer screen, dose series, 48 h

With `CCCCCCCCCC(=O)OCC1(CO)C/C(=C/CC(C(C)C)C(C)C)C(=O)O1` (stereo not given), the GI50 with OVCAR-5 was 64.9 µM (inactive); in the test with UO-31 it was 28.7 µM (inactive); in the test with NCI-H460 it was 23.5 µM (inactive); in the test on DU-145, 71 µM (inactive); in the test with OVCAR-4, 61.2 µM (inactive); in the test on CAKI-1 it was 16 µM (inactive). Also, the GI50 with M14 is 51.2 µM (inactive); with SW-620, 26.9 µM (inactive); with SK-MEL-5, 25.7 µM (inactive); in the test on CCRF-CEM, 14.9 µM (inactive); with SR it was 26.2 µM (inactive); in the test on BT-549, > 100 µM (inactive). For the same compound, the GI50 in the test on NCI-H226 was 74.5 µM (inactive); with HCT-15, 84.5 µM; in the test with SNB-19, 32.6 µM (inactive); in the test with SN12C, 51.9 µM (inactive); in the test on A498, 53.3 µM (inactive); with HCC 2998 it was 39.3 µM (inactive). The results for the GI50 with UACC-257 and with IGROV-1 were > 100 µM (inactive) and 37.7 µM (inactive), respectively.

For `CCC1CCC2c3c([nH]c4ccc(C)cc34)C3C(=O)N(N(C)C)C(=O)C3C2C1` (stereo not given), the GI50 with OVCAR-5 is > 86.5 µM (inactive); with UO-31 it was > 75 µM (inactive); with NCI-H460, 7.45 µM (inactive); in the test with DU-145, 29.9 µM (inactive); in the test with OVCAR-4, 34 µM (inactive); in the test on CAKI-1 it was > 34.4 µM (inactive). Further, the GI50 with M14 is 14.5 µM (inactive); in the test with SW-620, 13.8 µM (inactive); in the test on SK-MEL-5, 12.8 µM (inactive); in the test with CCRF-CEM it was 12.7 µM (inactive); in the test with SR it was 3.17 µM (inactive); in the test with BT-549, 39.1 µM (inactive). Besides, the GI50 in the test with NCI-H226 was > 72.4 µM (inactive); in the test with HCT-15 it was 5.78 µM; in the test with SNB-19, 16.9 µM (inactive); with SN12C, 17.9 µM (inactive); in the test with A498, > 100 µM (inactive); with HCC 2998, 35.2 µM (inactive). The figures for the GI50 with UACC-257 and in the test on IGROV-1 were 5.64 µM (inactive) and 5.11 µM (inactive), respectively.

With `COC(=O)C1=C(C(=O)OC)SC(=C2SCSC3=C2SC(C(=O)OC)=C(C(=O)OC)C32SC3=C(CCCC3)S2)S1`, the GI50 with OVCAR-5, in the test on UO-31, with NCI-H460, in the test with DU-145, in the test on OVCAR-4 and in the test on CAKI-1 was > 100 µM (inactive) in each case. Further, the GI50 in the test with M14, in the test with SW-620, in the test with SK-MEL-5, in the test with CCRF-CEM, with SR and with BT-549 was > 100 µM (inactive) throughout. Also, the GI50 in the test on NCI-H226 is > 100 µM (inactive); in the test with HCT-15 it was more than 100 µM; in the test on SNB-19 it was 55.7 µM (inactive); in the test with SN12C it was > 100 µM (inactive); in the test on A498, 99.8 µM (inactive); with HCC 2998, > 100 µM (inactive). Also, the GI50 in the test with UACC-257 and in the test with IGROV-1 was > 100 µM (inactive) throughout.

As for `Cc1cc(S(=O)(=O)Nc2nc(Nc3ccc4ccccc4c3)n[nH]2)c(S)cc1Cl`, the GI50 in the test with OVCAR-5 was 73.8 µM (inactive); in the test on UO-31, > 100 µM (inactive); in the test on NCI-H460, 34.8 µM (inactive); in the test with DU-145, 54.3 µM (inactive); in the test on OVCAR-4, 79.1 µM (inactive); with CAKI-1, 52.8 µM (inactive). The GI50 with M14 was 46.8 µM (inactive); in the test on SW-620, 44.7 µM (inactive); in the test on SK-MEL-5 it was 22.5 µM (inactive); with CCRF-CEM, > 100 µM (inactive); with SR it was > 100 µM (inactive); with BT-549, 75.9 µM (inactive). The GI50 in the test with NCI-H226 was 34.1 µM (inactive); with HCT-15, 42.3 µM; with SNB-19 it was 49.3 µM (inactive); in the test on SN12C, 48.2 µM (inactive); in the test with A498, 26.4 µM (inactive); in the test on HCC 2998 it was 61.4 µM (inactive). Moreover, the GI50 in the test with UACC-257 was 34.3 µM (inactive); in the test on IGROV-1 it was 52.8 µM (inactive).

As to `CCC(C)C(NC(=O)CNC(=O)C(Cc1ccccc1)NC(=O)C1CCCN1C(=O)c1ccc(-c2ccc(Cl)cc2Cl)o1)C(=O)OC` (stereo not given) (X33-PFGI-OMe; configuration not given here), the GI50 with OVCAR-5 was 74.8 µM (inactive); with UO-31 it was 36.8 µM (inactive); with NCI-H460 it was 15.7 µM (inactive); in the test on DU-145, 39.5 µM (inactive); in the test with OVCAR-4, 28.6 µM (inactive); with CAKI-1, 31 µM (inactive). The GI50 in the test with M14 was 46.8 µM (inactive); with SW-620, 23 µM (inactive); with SK-MEL-5, 12.2 µM (inactive); in the test on CCRF-CEM, 8.09 µM (inactive); in the test with SR, 12.5 µM (inactive); in the test with BT-549, 92.5 µM (inactive). Further, the GI50 was > 100 µM (inactive) in the test with NCI-H226; 43.1 µM in the test on HCT-15; 48.1 µM (inactive) with SNB-19; 19.8 µM (inactive) with SN12C; 7.4 µM (inactive) with A498; 21.3 µM (inactive) in the test on HCC 2998. Also, the GI50 with UACC-257 was 16.8 µM (inactive); in the test with IGROV-1, 19.6 µM (inactive).
